Measured values: article PMC11219871, “Epigenetic-based differentiation therapy for Acute Myeloid Leukemia” (Nature Communications, 2024)
In brackets after ≈: the same amount, converted by molar mass. Several values for one entry are separate records, joined by “and”; a condition that tells them apart may be missing. Equal entries are not always repeated. Where two headings read alike, the source gives them in different places.

How the values were obtained:
HDAC1 = HDAC1 (Homo sapiens, UniProt Q13547); assay: HDAC enzymatic assay, fluorescence-labeled substrate; format: biochemical; details: for inhibition at 10 µM: source data of Fig. 1B
Sequence of HDAC1 (Q13547 whole entry): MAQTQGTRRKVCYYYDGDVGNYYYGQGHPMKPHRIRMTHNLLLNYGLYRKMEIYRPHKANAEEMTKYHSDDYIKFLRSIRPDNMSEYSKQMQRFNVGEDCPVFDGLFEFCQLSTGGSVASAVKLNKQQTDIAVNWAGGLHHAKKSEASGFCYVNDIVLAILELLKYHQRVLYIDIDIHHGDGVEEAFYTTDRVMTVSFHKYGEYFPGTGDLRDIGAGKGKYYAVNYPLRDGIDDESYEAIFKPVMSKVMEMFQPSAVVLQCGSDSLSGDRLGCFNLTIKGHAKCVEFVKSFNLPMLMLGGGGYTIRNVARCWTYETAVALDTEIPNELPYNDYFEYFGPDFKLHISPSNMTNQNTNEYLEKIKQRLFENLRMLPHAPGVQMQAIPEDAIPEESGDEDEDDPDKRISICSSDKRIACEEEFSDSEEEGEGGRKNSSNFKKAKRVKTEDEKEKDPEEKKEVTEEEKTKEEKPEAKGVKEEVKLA

G9a = biological target: T1, G9a (Homo sapiens, UniProt Q96KQ7); assay: Epigenetic panel (BPS Bioscience); G9a TR-FRET IC50; format: biochemical
T1 sequence (Q96KQ7 1-1210): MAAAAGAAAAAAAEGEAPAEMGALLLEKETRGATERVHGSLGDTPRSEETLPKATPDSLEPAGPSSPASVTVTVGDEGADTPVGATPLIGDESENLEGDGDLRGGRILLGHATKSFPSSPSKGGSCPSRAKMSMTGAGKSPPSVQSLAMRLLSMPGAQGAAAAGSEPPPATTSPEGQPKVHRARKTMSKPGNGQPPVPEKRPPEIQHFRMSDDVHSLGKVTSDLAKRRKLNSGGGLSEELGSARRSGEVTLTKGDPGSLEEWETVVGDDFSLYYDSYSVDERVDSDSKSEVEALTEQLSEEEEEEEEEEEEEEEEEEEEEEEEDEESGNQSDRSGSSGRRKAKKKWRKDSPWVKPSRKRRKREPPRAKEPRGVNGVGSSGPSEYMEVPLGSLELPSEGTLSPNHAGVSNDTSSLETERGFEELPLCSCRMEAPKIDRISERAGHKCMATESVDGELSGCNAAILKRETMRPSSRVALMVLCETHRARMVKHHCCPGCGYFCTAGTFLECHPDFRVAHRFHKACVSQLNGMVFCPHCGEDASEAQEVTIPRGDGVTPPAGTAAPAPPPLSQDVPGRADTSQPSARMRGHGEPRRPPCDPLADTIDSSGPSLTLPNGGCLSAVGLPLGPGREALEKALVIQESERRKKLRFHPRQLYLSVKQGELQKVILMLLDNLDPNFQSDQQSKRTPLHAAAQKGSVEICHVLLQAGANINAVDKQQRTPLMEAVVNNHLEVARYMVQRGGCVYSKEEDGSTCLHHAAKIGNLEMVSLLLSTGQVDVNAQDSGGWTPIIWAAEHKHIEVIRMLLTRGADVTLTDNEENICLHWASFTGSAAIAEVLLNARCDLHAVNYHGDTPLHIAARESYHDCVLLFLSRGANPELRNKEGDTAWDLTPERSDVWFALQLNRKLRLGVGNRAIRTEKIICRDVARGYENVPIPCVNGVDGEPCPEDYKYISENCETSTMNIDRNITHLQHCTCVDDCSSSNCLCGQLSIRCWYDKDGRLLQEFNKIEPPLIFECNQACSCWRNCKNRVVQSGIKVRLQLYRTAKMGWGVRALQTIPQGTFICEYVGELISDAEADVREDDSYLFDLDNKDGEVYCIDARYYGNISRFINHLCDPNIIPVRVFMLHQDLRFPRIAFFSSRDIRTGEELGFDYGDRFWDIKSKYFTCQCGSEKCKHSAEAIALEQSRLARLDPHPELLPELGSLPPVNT
Description: DNMT1 and G9a IC50 values were measured using time-resolved fluorescence energy transfer assays, as described previously[18],[25],[26].
Binding experiments were performed in duplicate at a concentration of 10 μM.

Kinetic solubility = format: physicochemical; details: PBS buffer, aqueous buffer, kinetic from dmso stock, pH 7.4, PBS
Description: This study was conducted at Wuxi (http://www.wuxi.com/). Stock solutions of test compounds (10 mM; 100% DMSO) and 490 μL of PBS buffer at pH = 7.4 were added in the lower chamber of Whatman’s Mini-Uniprep vials. After vortex mixing for ≥2 min, the vials were shaken at 800 rpm for 24 h and finally centrifuged at 1520 g for 20 min. The concentration of the filtrate was quantified by HPLC (calibration curve from 1.5624 μM to 200 μM). Amiodarone hydrochloride, carbamazepine and chloramphenicol were used as controls.

[1] = system: LINE-1 DNA methylation in ML-2; assay: LINE-1 pyrosequencing; format: cell-based, human
Description: (§1) DNA methylation of the repetitive element LINE-1 was analyzed using a pyrosequencing technique. […] Cells were washed twice with PBS, and then genomic DNA was extracted using a DNA Kit (Nucleo Spin Tissue, Cat No 74095250, Macherey-Nagel) following the manufacturer's instructions. DNA purity and concentration were measured using a NanoDrop spectrophotometer (Thermo Scientific). A 1 μg amount of genomic DNA was treated and modified using a CpGenome DNA modification Kit (Cat No S7820, Chemicon International) following the manufacturer's instructions. […] [NT]) in a final volume of 25 μL. The resulting biotinylated PCR products were immobilized to Streptavidin Sepharose ® High-Performance beads (GE Healthcare) and processed to yield high-quality ssDNA using the PyroMark Vacuum Prep Workstation (Biotage) according to the manufacturer's instructions. The pyrosequencing reactions were performed using the PyromarkTM ID (Biotage), and sequence analysis was performed using the PyroQ-CpG analysis software (Biotage).

[2] = system: LINE-1 DNA methylation in HL-60; assay: LINE-1 pyrosequencing; format: cell-based, human; details: for LINE-1 methylation (%) CG Position 1 Replicate 1 / LINE-1 methylation (%) CG Position 1 Replicate 2 / LINE-1 methylation (%) CG Position 2 Replicate 1 / LINE-1 methylation (%) CG Position 2 Replicate 2 / LINE-1 methylation (%) CG Position 3 Replicate 1 / LINE-1 methylation (%) CG Position 3 Replicate 2 / LINE-1 methylation (%) CG Position 4 Replicate 1 / LINE-1 methylation (%) CG Position 4 Replicate 2 / LINE-1 methylation (%) CG Position 5 Replicate 1 / LINE-1 methylation (%) CG Position 5 Replicate 2: HL-60, 48 h
Description: as §1

[3] = system: LINE-1 DNA methylation in MOLM-13; assay: LINE-1 pyrosequencing; format: cell-based, human
Description: as §1

**Q.** What does the source list for `COc1cc2nc(-c3cc(C)oc3C)cc(NCC3CCN(c4ncc(C(=O)NO)cn4)CC3)c2cc1OC` [CM-1758, 2-[4-[[[2-(2,5-dimethyl-3-furyl)-6,7-dimethoxy-4-quinolyl]amino]methyl] -1-piperidyl]pyrimidine-5-carbohydroxamic acid]?
**A.** inhibition at 10 µM (HDAC1): 90%; IC50 (HDAC1; read-out: HDAC1 IC50): 4.32 nM; IC50 (HDAC1; read-out: IC50): 4.3 nM; IC50 (G9a): > 10000 nM; inhibition at 10 µM (G9a): 9%; solubility at 24 h (Kinetic solubility): > 144 µg/mL; LINE-1 methylation (%) CG Position 1 ([1]; ML-2, 48 hours): 70% and 68%; LINE-1 methylation (%) CG Position 2 ([1]; ML-2, 48 hours): 72% and 74%; LINE-1 methylation (%) CG Position 3 ([1]; ML-2, 48 hours): 78% and 80%; LINE-1 methylation (%) CG Position 4 ([1]; ML-2, 48 hours): 85% and 89%; LINE-1 methylation (%) CG Position 5 ([1]; ML-2, 48 hours): 59% and 61%; LINE-1 methylation (%) CG Position 1 ([1]; ML-2, 10 days): 60%; LINE-1 methylation (%) CG Position 2 ([1]; ML-2, 10 days): 54% and 50%; LINE-1 methylation (%) CG Position 3 ([1]; ML-2, 10 days): 61% and 63%; LINE-1 methylation (%) CG Position 4 ([1]; ML-2, 10 days): 73% and 65%; LINE-1 methylation (%) CG Position 5 ([1]; ML-2, 10 days): 43% and 39%; LINE-1 methylation (%) CG Position 1 Replicate 1 [2]: 100%; LINE-1 methylation (%) CG Position 1 Replicate 2 [2]: 100%; LINE-1 methylation (%) CG Position 2 Replicate 1 [2]: 86%; LINE-1 methylation (%) CG Position 2 Replicate 2 [2]: 82%; LINE-1 methylation (%) CG Position 3 Replicate 1 [2]: 100%; LINE-1 methylation (%) CG Position 3 Replicate 2 [2]: 100%; LINE-1 methylation (%) CG Position 4 Replicate 1 [2]: 100%; LINE-1 methylation (%) CG Position 4 Replicate 2 [2]: 100%; LINE-1 methylation (%) CG Position 5 Replicate 1 [2]: 79%; LINE-1 methylation (%) CG Position 5 Replicate 2 [2]: 83%; LINE-1 methylation (%) CG Position 1 ([2]; HL-60, 10 days): 76% and 78%; LINE-1 methylation (%) CG Position 2 ([2]; HL-60, 10 days): 61% and 65%; LINE-1 methylation (%) CG Position 3 ([2]; HL-60, 10 days): 77% and 85%; LINE-1 methylation (%) CG Position 4 ([2]; HL-60, 10 days): 87% and 93%; LINE-1 methylation (%) CG Position 5 ([2]; HL-60, 10 days): 57% and 55%; LINE-1 methylation (%) CG Position 1 ([3]; MOLM-13, 48 hours): 99% and 97%; LINE-1 methylation (%) CG Position 2 ([3]; MOLM-13, 48 hours): 85% and 81%; LINE-1 methylation (%) CG Position 3 ([3]; MOLM-13, 48 hours): 100% and 96%; LINE-1 methylation (%) CG Position 4 ([3]; MOLM-13, 48 hours): 100%; LINE-1 methylation (%) CG Position 5 ([3]; MOLM-13, 48 hours): 70% and 82%; LINE-1 methylation (%) CG Position 1 ([3]; MOLM-13, 5 days): 69% and 59%; LINE-1 methylation (%) CG Position 2 ([3]; MOLM-13, 5 days): 63% and 69%; LINE-1 methylation (%) CG Position 3 ([3]; MOLM-13, 5 days): 78% and 80%; LINE-1 methylation (%) CG Position 4 ([3]; MOLM-13, 5 days): 83% and 87%; LINE-1 methylation (%) CG Position 5 ([3]; MOLM-13, 5 days): 58% and 54%

**Q.** Which results are given for `COc1cc2nc(-c3ccc(C)o3)cc(NCC3CCN(c4ncc(C(=O)NO)cn4)CC3)c2cc1OC` [CM-444, 2-[4-[[[6,7-dimethoxy-2-(5-methyl-2-furyl)-4-quinolyl]amino]methyl]-1-piperidyl]pyrimidine-5-carbohydroxamic acid]?
**A.** inhibition at 10 µM (HDAC1): 90%; IC50 (HDAC1; read-out: IC50): 6.55 nM; IC50 (G9a): > 10000 nM; inhibition at 10 µM (G9a): 0%; solubility at 24 h (Kinetic solubility): 118 µg/mL (≈ 227 µM); LINE-1 methylation (%) CG Position 1 ([1]; ML-2, 48 hours): 65% and 67%; LINE-1 methylation (%) CG Position 2 ([1]; ML-2, 48 hours): 73%; LINE-1 methylation (%) CG Position 3 ([1]; ML-2, 48 hours): 77% and 81%; LINE-1 methylation (%) CG Position 4 ([1]; ML-2, 48 hours): 86% and 88%; LINE-1 methylation (%) CG Position 5 ([1]; ML-2, 48 hours): 56% and 64%; LINE-1 methylation (%) CG Position 1 ([1]; ML-2, 10 days): 61% and 57%; LINE-1 methylation (%) CG Position 2 ([1]; ML-2, 10 days): 48% and 46%; LINE-1 methylation (%) CG Position 3 ([1]; ML-2, 10 days): 66% and 62%; LINE-1 methylation (%) CG Position 4 ([1]; ML-2, 10 days): 64% and 60%; LINE-1 methylation (%) CG Position 5 ([1]; ML-2, 10 days): 46% and 44%; LINE-1 methylation (%) CG Position 1 ([2]; 48 h, 0.27 µM): 97%; LINE-1 methylation (%) CG Position 2 ([2]; 48 h, 0.27 µM): 83%; LINE-1 methylation (%) CG Position 3 ([2]; 48 h, 0.27 µM): 100%; LINE-1 methylation (%) CG Position 4 ([2]; 48 h, 0.27 µM): 100%; LINE-1 methylation (%) CG Position 5 ([2]; 48 h, 0.27 µM): 73%; LINE-1 methylation (%) CG Position 1 Replicate 1 [2]: 96%; LINE-1 methylation (%) CG Position 1 Replicate 2 [2]: 98%; LINE-1 methylation (%) CG Position 2 Replicate 1 [2]: 84%; LINE-1 methylation (%) CG Position 2 Replicate 2 [2]: 82%; LINE-1 methylation (%) CG Position 3 Replicate 1 [2]: 100%; LINE-1 methylation (%) CG Position 3 Replicate 2 [2]: 100%; LINE-1 methylation (%) CG Position 4 Replicate 1 [2]: 100%; LINE-1 methylation (%) CG Position 4 Replicate 2 [2]: 100%; LINE-1 methylation (%) CG Position 5 Replicate 1 [2]: 72%; LINE-1 methylation (%) CG Position 5 Replicate 2 [2]: 74%; LINE-1 methylation (%) CG Position 1 ([2]; HL-60, 10 days): 77% and 81%; LINE-1 methylation (%) CG Position 2 ([2]; HL-60, 10 days): 66% and 70%; LINE-1 methylation (%) CG Position 3 ([2]; HL-60, 10 days): 71% and 75%; LINE-1 methylation (%) CG Position 4 ([2]; HL-60, 10 days): 86% and 88%; LINE-1 methylation (%) CG Position 5 ([2]; HL-60, 10 days): 65% and 63%; LINE-1 methylation (%) CG Position 1 ([3]; MOLM-13, 48 hours): 100%; LINE-1 methylation (%) CG Position 2 ([3]; MOLM-13, 48 hours): 83% and 79%; LINE-1 methylation (%) CG Position 3 ([3]; MOLM-13, 48 hours): 100%; LINE-1 methylation (%) CG Position 4 ([3]; MOLM-13, 48 hours): 100%; LINE-1 methylation (%) CG Position 5 ([3]; MOLM-13, 48 hours): 74% and 78%; LINE-1 methylation (%) CG Position 1 ([3]; MOLM-13, 5 days): 62%; LINE-1 methylation (%) CG Position 2 ([3]; MOLM-13, 5 days): 60% and 68%; LINE-1 methylation (%) CG Position 3 ([3]; MOLM-13, 5 days): 69% and 73%; LINE-1 methylation (%) CG Position 4 ([3]; MOLM-13, 5 days): 74% and 76%; LINE-1 methylation (%) CG Position 5 ([3]; MOLM-13, 5 days): 53% and 55%
